Values of other authors in patent US4937073A, “Reformed vetiver oil and vetiverol, process for preparing the same, and perfumery composition comprising the same” (Kao Corporation, priority 1988, dated 1990).
Where two headings read alike, the source gives them in different places.

## O=C(O)C(O)C(O)C(=O)O (centres unmarked) [tartaric acid]
  pKa: 2.82
Listed as Tartaric acid
  pKa: 1.04
